Structures are written as SMILES. Entries after “also recorded” stand apart in the source; their conditions may differ.

The target of one experiment is T1, estrogen receptor (Homo sapiens, UniProt P03372).
T1 sequence (P03372 1-595): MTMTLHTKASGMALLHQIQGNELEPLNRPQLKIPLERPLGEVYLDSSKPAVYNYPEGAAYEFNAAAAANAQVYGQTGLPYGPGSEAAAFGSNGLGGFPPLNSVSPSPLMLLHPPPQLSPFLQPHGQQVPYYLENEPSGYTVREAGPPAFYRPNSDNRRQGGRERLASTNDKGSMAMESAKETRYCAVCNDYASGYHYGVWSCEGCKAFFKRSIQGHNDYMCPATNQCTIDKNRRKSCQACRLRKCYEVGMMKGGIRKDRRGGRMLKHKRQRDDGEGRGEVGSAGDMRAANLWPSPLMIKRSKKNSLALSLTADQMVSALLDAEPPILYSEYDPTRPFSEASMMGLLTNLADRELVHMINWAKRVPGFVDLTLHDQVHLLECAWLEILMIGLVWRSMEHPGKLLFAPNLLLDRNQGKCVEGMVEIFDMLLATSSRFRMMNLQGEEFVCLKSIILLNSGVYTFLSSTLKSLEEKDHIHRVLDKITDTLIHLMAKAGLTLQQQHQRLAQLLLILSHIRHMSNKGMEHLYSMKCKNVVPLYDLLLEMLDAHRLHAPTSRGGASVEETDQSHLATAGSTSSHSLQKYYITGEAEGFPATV
In words: Estrogen receptor competition assay (relative binding affinity). The following applies: estradiol (E2) = 100%.

For experiment [1], the system named is Ishikawa cell. In words: Agonist/antagonist character of the analogs (Tables 1 and 2). The format is cell-based. The following applies: estrogen agonism or antagonism, assay not named in the tables. The text has this: From the estrogen competition assay, we expected that the methyl and ethyl esters, E11-2,1 and E11-2,2 would have relatively high activity in the estrogen potency assay, induction of alkaline phosphatase in Ishikawa cells. However, the results were quite unexpected (see FIG. 5, attached). […] We had never previously seen this disparity between estrogen receptor binding and biological activity. It occurred to us that we were observing the results that would obtained with a SERM and that E11-2,2 was in fact an antiestrogen. Consequently, we repeated the Ishikawa assay as an antiestrogenic assay (the assay is run in the presence of specified amounts of estradiol). […] We continued our synthesis of various analogs in order to define the chemical characteristics that lead to antiestrogenic effects. […] In this regard, several compounds are described with a 17α-ethynyl group in order to protect the C-17 hydroxyl from biological oxidation.

For experiment [2], the system named is Ishikawa cell. In words: Antiestrogen Ishikawa cell assay (run in the presence of estradiol). In kind it is cell-based. The following applies: for antiestrogenic activity (in words): inhibition of estradiol-stimulated alkaline phosphatase. The text has this: (§1) From the estrogen competition assay, we expected that the methyl and ethyl esters, E11-2,1 and E11-2,2 would have relatively high activity in the estrogen potency assay, induction of alkaline phosphatase in Ishikawa cells. However, the results were quite unexpected (see FIG. 5, attached). […] We had never previously seen this disparity between estrogen receptor binding and biological activity. It occurred to us that we were observing the results that would obtained with a SERM and that E11-2,2 was in fact an antiestrogen. Consequently, we repeated the Ishikawa assay as an antiestrogenic assay (the assay is run in the presence of specified amounts of estradiol).

A further experiment has as its system Ishikawa cells. Briefly: Ishikawa estrogenic potency assay, induction of alkaline phosphatase. In kind it is cell-based. To be noted: for relative stimulatory activity (RSA): induction of alkaline phosphatase, estradiol set at 100%; for estrogenic activity (in words): induction of alkaline phosphatase in Ishikawa cells.
Description: as §1, with “Ishikawa Estrogenic Potency Assay From” for “From”

Experiment [3] has as its system uterotrophic action of estradiol. Briefly: In vivo uterotrophic assay, antiestrogenic action. Set-up: species or system rat. To be noted: immature female rats; for effect on uterotrophic action of estradiol: 20 ng estradiol. The procedure: In Vivo Uterotropic Activity
The analogs were administered concurrently in the same oil.

As for `COC(=O)C[C@H]1C[C@]2(C)[C@@H](O)CC[C@H]2[C@@H]2CCc3cc(O)ccc3[C@@H]12` [E11-2,1], the “relative binding affinity (RBA)” value at estrogen receptor was found to be 24%. For the same molecule, the “agonist / antagonist character” value in the experiment with Ishikawa cell [1] is “estrogen”. Also, the “antiestrogenic activity (in words)” value in the experiment with Ishikawa cell [2] is reported as “neither E11-2,1 nor E11-2,0 showed any antiestrogenic activity”. In the experiment on Ishikawa cells, the “relative stimulatory activity (RSA)” value stood at 16%.
In the case of `CC(=O)OCC[C@H]1C[C@]2(C)[C@@H](O)CC[C@H]2[C@@H]2CCc3cc(O)ccc3[C@@H]12` [E11-2,2Rev], the “agonist / antagonist character” value in the experiment on Ishikawa cell [1] is “agonist”.
Same read-out and setting: in the case of `CCCOCCC1CC2(C)C(O)CCC2C2CCc3cc(O)ccc3C12` (centres unmarked) [E11-2,3ether] it was “strong antagonist”.
Turning to `C[C@]12CC[C@@H]3c4ccc(O)cc4CC[C@H]3[C@@H]1CCC2=O` [estrone, reference compound], the “relative stimulatory activity (RSA)” value with Ishikawa cells was 4%.
For the molecule `CC(C)(C)OCCCC1CC2(C)C(O)CCC2C2CCc3cc(O)ccc3C12` (centres unmarked) [E11-3,tBu ether], the “agonist / antagonist character” value with Ishikawa cell [1] was “extremely strong antagonists; also recorded: very strong antagonist”.
Still for that read-out and setting: in the case of `CC(C)OCCC1CC2(C)C(O)CCC2C2CCc3cc(O)ccc3C12` (centres unmarked) [E11-2,iPr ether] it was “strong antagonist”.
Take `CCOCCC1CC2(C)C(O)CCC2C2CCc3cc(O)ccc3C12` (centres unmarked) [E11-2,2ether]: the “agonist / antagonist character” value with Ishikawa cell [1] was “strong antagonist”. For the same molecule, the “inhibition of the effect of estradiol” value in experiment [3] (30 μg analog) is “about 50%”.
On to `CC12CC(CCCOCCF)C3c4ccc(O)cc4CCC3C1CCC2O` (centres unmarked) [E11-3,2F1 ether], for which the “agonist / antagonist character” value in the experiment on Ishikawa cell [1] is “strong antagonist”.
On the same count and under the same terms, as for `CC(=O)OCCC[C@H]1C[C@]2(C)[C@@H](O)CC[C@H]2[C@@H]2CCc3cc(O)ccc3[C@@H]12` [E11-3,2Rev], the entry is “antagonist”; as for `CC(C)(C)C(=O)OCCC[C@H]1C[C@]2(C)[C@@H](O)CC[C@H]2[C@@H]2CCc3cc(O)ccc3[C@@H]12` [E11-3,piv Rev], “antagonist”; as for `CC(C)OCCCC1CC2(C)C(O)CCC2C2CCc3cc(O)ccc3C12` (centres unmarked) [E11-3,iPr ether], “strong antagonist”.
With `C[C@]12C[C@H](CC(=O)O)[C@@H]3c4ccc(O)cc4CC[C@H]3[C@@H]1CC[C@@H]2O` [E11-2,0], the “relative binding affinity (RBA)” value at estrogen receptor amounted to 0.3%. In the experiment with Ishikawa cell [2], the “antiestrogenic activity (in words)” value is given as “neither E11-2,1 nor E11-2,0 showed any antiestrogenic activity”. Further, in the experiment with Ishikawa cells, the “estrogenic activity (in words)” value is “more active than E11-2,2”.
On to `CC(C)OC(=O)C[C@H]1C[C@]2(C)[C@@H](O)CC[C@H]2[C@@H]2CCc3cc(O)ccc3[C@@H]12` [E11-2,3i], for which the “agonist / antagonist character” value with Ishikawa cell [1] was “strong antagonist”.
Same read-out and setting: in the case of `COC(=O)CC[C@H]1C[C@]2(C)[C@@H](O)CC[C@H]2[C@@H]2CCc3cc(O)ccc3[C@@H]12` [E11-3,1] it was “antagonist”.
With `CCOC(=S)C[C@H]1C[C@]2(C)[C@@H](O)CC[C@H]2[C@@H]2CCc3cc(O)ccc3[C@@H]12` [E11-2S2], the “agonist / antagonist character” value in the experiment with Ishikawa cell [1] is given as “antagonist”; in the experiment with Ishikawa cell [1] (listed as E11-2S,2), “strong antagonist”.
In the case of `COCCC1CC2(C)C(O)CCC2C2CCc3cc(O)ccc3C12` (centres unmarked) [E11-2,1ether], the “agonist / antagonist character” value in the experiment on Ishikawa cell [1] is listed as “agonist/slight antagonist”.
The same measure, in the same setting: in the case of `C[C@]12C[C@H](CCOC3CC3)[C@@H]3c4ccc(O)cc4CC[C@H]3[C@@H]1CC[C@@H]2O` [E11-2,cyclo-Pr ether] it was “strong antagonist”; in that of `CC(=O)OC[C@H]1C[C@]2(C)[C@@H](O)CC[C@H]2[C@@H]2CCc3cc(O)ccc3[C@@H]12` [E11-1,2Rev], “agonist”.
The same measure, in the same setting: in the case of `CCC(=O)C[C@H]1C[C@]2(C)[C@@H](O)CC[C@H]2[C@@H]2CCc3cc(O)ccc3[C@@H]12` [E11-2K2] it was “weak agonist”; in that of `C[C@]12C[C@H](CCOC3CCCC3)[C@@H]3c4ccc(O)cc4CC[C@H]3[C@@H]1CC[C@@H]2O` [E11-2,cyclo-Pent ether], “extremely strong antagonists; also recorded: very strong antagonist”.
With `CC(C)(C)COC(=O)C[C@H]1C[C@]2(C)[C@@H](O)CC[C@H]2[C@@H]2CCc3cc(O)ccc3[C@@H]12` [E11-2,5neo], in the experiment with Ishikawa cell [1], the “agonist / antagonist character” value is listed as “antagonist”.
With `CCOCC1CC2(C)C(O)CCC2C2CCc3cc(O)ccc3C12` (centres unmarked) [E11-1,2ether], the “agonist / antagonist character” value in the experiment with Ishikawa cell [1] was “agonist”.
As for `CCCCOC(=O)C[C@H]1C[C@]2(C)[C@@H](O)CC[C@H]2[C@@H]2CCc3cc(O)ccc3[C@@H]12` [E11-2,4], the “agonist / antagonist character” value in the experiment on Ishikawa cell [1] is on record as “strong antagonist”.
In general, Ki refers to a measure of affinity in units of concentration, obtained from inhibition or displacement. Regarding `CCOC(=O)C[C@H]1C[C@]2(C)[C@@H](O)CC[C@H]2[C@@H]2CCc3cc(O)ccc3[C@@H]12` [E11-2,2], the “relative binding affinity (RBA)” value at estrogen receptor turned out to be 45%. Further, in the experiment on Ishikawa cell [1], the “agonist / antagonist character” value was “antiestrogen; also recorded: strong antagonist”. Also, the “effect on uterotrophic action of estradiol” value is “partially active” in experiment [3] (3 μg analog) and “completely abolished the effect of 20 ng estradiol” in experiment [3] (10 μg analog). The “effect on uterotrophic action of estradiol (uterine weight)” value in experiment [3] (100 μg analog, 50 ng estradiol, FIG. 7) was “inhibiting the action of 50 ng of estradiol”. In the experiment on Ishikawa cell [2], the “antiestrogenic activity (in words)” value is on record as “inhibited the estrogenic stimulation of alkaline phosphatase in the Ishikawa cell, with very high potency”. Besides, the Ki in the experiment with Ishikawa cell [2] (inhibition of estrogenic stimulation of alkaline phosphatase, several assays) was in the range of 1 to 2 nM. Further, the “estrogenic activity (in words)” value in the experiment on Ishikawa cells is “almost inactive”.
For the molecule `CCOCCCC1CC2(C)C(O)CCC2C2CCc3cc(O)ccc3C12` (centres unmarked) [E11-3,2 ether], the “agonist / antagonist character” value in the experiment on Ishikawa cell [1] is recorded as “strong antagonist”.
As to `C#CC1(O)CCC2C3CCc4cc(O)ccc4C3C(CCCOC(C)C)CC21C` (stereo not drawn) [17α-ethynyl-E11-3,iPr ether], in the experiment with Ishikawa cell [1], the “agonist / antagonist character” value is “very strong antagonist”.
On the same count and under the same terms, in the case of `CCCOCC1CC2(C)C(O)CCC2C2CCc3cc(O)ccc3C12` (centres unmarked) [E11-1,3ether] it was “strong antagonist”.
The same measure, in the same setting: as for `COCCCC1CC2(C)C(O)CCC2C2CCc3cc(O)ccc3C12` (centres unmarked) [E11-3,1 ether], the entry is “antagonist”; as for `CC(C)(C)OCCC1CC2(C)C(O)CCC2C2CCc3cc(O)ccc3C12` (centres unmarked) [E11-2,tBu ether], “very weak antagonist”.
As for `CCCC(=O)C[C@H]1C[C@]2(C)[C@@H](O)CC[C@H]2[C@@H]2CCc3cc(O)ccc3[C@@H]12` [E11-2K3], in the experiment on Ishikawa cell [1], the “agonist / antagonist character” value is given as “antagonist”. The “effect on uterotrophic response of estradiol” value in experiment [3] (30 μg analog) is on record as “completely abolished the uterotrophic response of estradiol”.
For the molecule `CCCOC(=O)C[C@H]1C[C@]2(C)[C@@H](O)CC[C@H]2[C@@H]2CCc3cc(O)ccc3[C@@H]12` [E11-2,3], the “agonist / antagonist character” value in the experiment on Ishikawa cell [1] is “strong antagonist”.
The same measure, in the same setting: as for `C#CC1(O)CCC2C3CCc4cc(O)ccc4C3C(CCCOC(C)(C)C)CC21C` (stereo not drawn) [17α-ethynyl-E11-3,tBu ether], the entry is “very strong antagonist”.

The record behind these values is patent US9315539B2 (YALE UNIVERSITY, priority 2002, dated 2016).
